Source: PubChem BioAssay (NCI)
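Dose response: 5 concentrations. Exposure: 48 h. Format: 96-well plates. Endpoint: linear interpolation; highest concentration if not reached. TGI: concentration producing complete growth inhibition.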

How the values were obtained:
Test in all cases: NCI-60 cell line screen, 48 h
SK-MEL-2 melanoma = system: SK-MEL-2 melanoma
MALME-3M melanoma = system: MALME-3M melanoma
UO-31 renal = system: UO-31 renal
OVCAR-4 ovarian = system: OVCAR-4 ovarian
OVCAR-3 ovarian = system: OVCAR-3 ovarian
NCI-H460 lung = system: NCI-H460 lung
PC-3 prostate = system: PC-3 prostate
SF-539 CNS = system: SF-539 CNS
HCC-2998 colon = system: HCC-2998 colon
A498 renal = system: A498 renal
T-47D breast = system: T-47D breast
NCI-H23 lung = system: NCI-H23 lung
BT-549 breast = system: BT-549 breast
HCT-15 colon = system: HCT-15 colon
MDA-MB-435 = system: MDA-MB-435
CAKI-1 renal = system: CAKI-1 renal
COLO 205 colon = system: COLO 205 colon
OVCAR-5 ovarian = system: OVCAR-5 ovarian
CCRF-CEM leukemia = system: CCRF-CEM leukemia
MOLT-4 leukemia = system: MOLT-4 leukemia
786-0 renal = system: 786-0 renal
HOP-62 NSCLC = system: HOP-62 NSCLC
NCI-H226 lung = system: NCI-H226 lung
SK-MEL-5 melanoma = system: SK-MEL-5 melanoma
MDA-N = system: MDA-N
M14 melanoma = system: M14 melanoma
UACC-62 melanoma = system: UACC-62 melanoma
HOP-92 NSCLC = system: HOP-92 NSCLC
IGROV1 ovarian = system: IGROV1 ovarian
HCT-116 colon = system: HCT-116 colon
RXF 393 renal = system: RXF 393 renal
UACC-257 melanoma = system: UACC-257 melanoma
A549 NSCLC = system: A549 NSCLC
EKVX NSCLC = system: EKVX NSCLC
MDA-MB-231 breast = system: MDA-MB-231 breast
LOX IMVI melanoma = system: LOX IMVI melanoma
SF-295 CNS = system: SF-295 CNS
SN12C renal = system: SN12C renal
SK-OV-3 ovarian = system: SK-OV-3 ovarian
HL-60(TB) leukemia = system: HL-60(TB) leukemia
MCF7 breast = system: MCF7 breast
SR leukemia = system: SR leukemia
NCI/ADR-RES ovarian = system: NCI/ADR-RES ovarian
K-562 leukemia = system: K-562 leukemia
RPMI-8226 leukemia = system: RPMI-8226 leukemia
U251 CNS = system: U251 CNS
SNB-19 CNS = system: SNB-19 CNS
ACHN renal = system: ACHN renal
SK-MEL-28 melanoma = system: SK-MEL-28 melanoma
TK-10 renal = system: TK-10 renal
SNB-75 CNS = system: SNB-75 CNS
NCI-H522 lung = system: NCI-H522 lung
OVCAR-8 ovarian = system: OVCAR-8 ovarian
SW-620 colon = system: SW-620 colon
KM12 colon = system: KM12 colon
HT29 colon = system: HT29 colon
DU-145 prostate = system: DU-145 prostate
SF-268 CNS = system: SF-268 CNS

COc1ccc(NC(C)=O)cc1N1C(=O)/C(=C\c2cccc(Oc3ccccc3)c2)S(=O)(=O)C1c1ccccc1 (stereo not drawn) gave a TGI (SK-MEL-2 melanoma) of over 100 µM, a TGI (MALME-3M melanoma) of over 100 µM and a TGI (UO-31 renal) of over 100 µM. The TGI (OVCAR-4 ovarian) was over 100 µM, the TGI (OVCAR-3 ovarian) was over 100 µM and the TGI (NCI-H460 lung) was over 100 µM. It also gave a TGI (PC-3 prostate) of over 100 µM, a TGI (SF-539 CNS) of 74.6 µM and a TGI (HCC-2998 colon) of over 100 µM. It also gave a TGI (A498 renal) of over 100 µM, a TGI (T-47D breast) of over 100 µM and a TGI (NCI-H23 lung) of over 100 µM. The TGI (BT-549 breast) was over 100 µM, the TGI (HCT-15 colon) was over 100 µM and the TGI (MDA-MB-435) was over 100 µM. For the same molecule, the TGI (CAKI-1 renal) was 44.8 µM, the TGI (COLO 205 colon) was over 100 µM and the TGI (OVCAR-5 ovarian) was over 100 µM. For the same molecule, the TGI (CCRF-CEM leukemia) was 83.8 µM, the TGI (MOLT-4 leukemia) was 59 µM and the TGI (786-0 renal) was over 100 µM. It also gave a TGI (HOP-62 NSCLC) of over 100 µM, a TGI (NCI-H226 lung) of over 100 µM and a TGI (SK-MEL-5 melanoma) of over 100 µM. The TGI (MDA-N) was 53.6 µM, the TGI (M14 melanoma) was over 100 µM and the TGI (UACC-62 melanoma) was over 100 µM. The TGI (HOP-92 NSCLC) was over 100 µM, the TGI (IGROV1 ovarian) was over 100 µM and the TGI (HCT-116 colon) was 31.3 µM. The TGI (RXF 393 renal) was over 100 µM, the TGI (UACC-257 melanoma) was over 100 µM and the TGI (A549 NSCLC) was over 100 µM. For the same molecule, the TGI (EKVX NSCLC) was over 100 µM, the TGI (MDA-MB-231 breast) was over 100 µM and the TGI (LOX IMVI melanoma) was over 100 µM. For the same molecule, the TGI (SF-295 CNS) was over 100 µM, the TGI (SN12C renal) was 73 µM and the TGI (SK-OV-3 ovarian) was over 100 µM. For the same molecule, the TGI (HL-60(TB) leukemia) was 40.5 µM, the TGI (MCF7 breast) was over 100 µM and the TGI (SR leukemia) was 23.9 µM. It also gave a TGI (NCI/ADR-RES ovarian) of over 100 µM, a TGI (K-562 leukemia) of 68.9 µM and a TGI (RPMI-8226 leukemia) of 73.6 µM. It also gave a TGI (U251 CNS) of over 100 µM, a TGI (SNB-19 CNS) of over 100 µM and a TGI (ACHN renal) of over 100 µM. It also gave a TGI (SK-MEL-28 melanoma) of over 100 µM, a TGI (TK-10 renal) of over 100 µM and a TGI (SNB-75 CNS) of over 100 µM. The TGI (NCI-H522 lung) was over 100 µM, the TGI (OVCAR-8 ovarian) was over 100 µM and the TGI (SW-620 colon) was over 100 µM. It also gave a TGI (KM12 colon) of over 100 µM, a TGI (HT29 colon) of 43.7 µM and a TGI (DU-145 prostate) of over 100 µM.

Work on Oc1ccc(-c2nc3ccc(F)cc3s2)cc1 yielded a TGI (SK-MEL-2 melanoma) of 34.9 µM, a TGI (MALME-3M melanoma) of 38.5 µM and a TGI (UO-31 renal) of 30.1 µM. The TGI (OVCAR-4 ovarian) was 58.1 µM, the TGI (OVCAR-3 ovarian) was 90.9 µM and the TGI (NCI-H460 lung) was 59 µM. The TGI (PC-3 prostate) was 44.5 µM, the TGI (SF-539 CNS) was 34 µM and the TGI (T-47D breast) was 36 µM. The TGI (NCI-H23 lung) was 48.3 µM, the TGI (BT-549 breast) was 37.4 µM and the TGI (HCT-15 colon) was 35 µM. It also gave a TGI (MDA-MB-435) of 41.5 µM, a TGI (CAKI-1 renal) of 37 µM and a TGI (COLO 205 colon) of 29.9 µM. For the same molecule, the TGI (OVCAR-5 ovarian) was 44.7 µM, the TGI (MOLT-4 leukemia) was over 100 µM and the TGI (786-0 renal) was 36 µM. For the same molecule, the TGI (NCI-H226 lung) was 44.5 µM, the TGI (SK-MEL-5 melanoma) was 38 µM and the TGI (MDA-N) was 70.6 µM. It also gave a TGI (M14 melanoma) of 37.3 µM, a TGI (UACC-62 melanoma) of 34.8 µM and a TGI (IGROV1 ovarian) of 34.6 µM. It also gave a TGI (HCT-116 colon) of 32.9 µM, a TGI (RXF 393 renal) of 68.2 µM and a TGI (UACC-257 melanoma) of 37.2 µM. For the same molecule, the TGI (SF-268 CNS) was 58.9 µM, the TGI (A549 NSCLC) was 43.1 µM and the TGI (EKVX NSCLC) was 25.4 µM. It also gave a TGI (MDA-MB-231 breast) of 49 µM, a TGI (LOX IMVI melanoma) of 39.7 µM and a TGI (SF-295 CNS) of 33.9 µM. It also gave a TGI (SN12C renal) of 40.9 µM, a TGI (SK-OV-3 ovarian) of 42.8 µM and a TGI (HL-60(TB) leukemia) of 51.8 µM. The TGI (MCF7 breast) was 59.1 µM, the TGI (SR leukemia) was 53.4 µM and the TGI (NCI/ADR-RES ovarian) was 52.8 µM. For the same molecule, the TGI (K-562 leukemia) was over 100 µM, the TGI (RPMI-8226 leukemia) was 63.9 µM and the TGI (U251 CNS) was 39.9 µM. For the same molecule, the TGI (SNB-19 CNS) was 51.2 µM, the TGI (ACHN renal) was 38.6 µM and the TGI (TK-10 renal) was 34.1 µM. It also gave a TGI (NCI-H522 lung) of 26.9 µM, a TGI (OVCAR-8 ovarian) of 39.9 µM and a TGI (SW-620 colon) of over 100 µM. The TGI (KM12 colon) was 33.8 µM, the TGI (HT29 colon) was 31.3 µM and the TGI (DU-145 prostate) was 30.3 µM.
